{
  "source": "patent US5126291A",
  "about": "“Sulfur inhibitors of phospholipase A-Z” (American Cyanamid Company, priority 1990, dated 1992)",
  "key": {"[1]": {"target": "T1, porcine pancreatic PLA2 (Sus scrofa, UniProt P00592)", "T1 construct": "purchased Sigma", "T1 sequence (P00592 23-146)": "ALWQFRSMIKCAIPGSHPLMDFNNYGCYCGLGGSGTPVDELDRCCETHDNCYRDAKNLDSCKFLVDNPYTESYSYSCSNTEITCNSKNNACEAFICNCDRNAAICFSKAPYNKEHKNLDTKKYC", "test": "Inhibition of porcine pancreatic phospholipase A2 (PLA2), radiochemical assay", "assay_type": "biochemical", "conditions": "for Percent Inhibition at 10 ug/ml / inhibition at 10 µg/mL: 10 ug/ml inhibitor; for inhibition at 10 µg/mL: read-out: Percent Inhibition at 10 ug/ml", "procedure": "4-((3-(Dimethylamino)propyl)thio)-1-(hexadecyloxy)-2-butanol, acetate was prepared by the method of Example 64 as a 1 mg/ml solution in methanol. Inhibition of phospholipase A2 activity was measured by a radiochemical assay in which labeled synthetic phosphatidylcholine substrate is converted by porcine pancreatic PLA2 to free radiolabeled arachidonate and lyso phosphatidyl choline. In the assay, radiolabeled arachidonate is extracted from the reaction mixture and separated from unreacted substrate by column or thin layer chromatography. The radioactivity (cpm) in samples is quantified in liquids scintillation counting.\n[…] The combined substrate was then redissolved in 0.1M Tris-HCl buffer, pH 9.0, containing 10 mM calcium chloride and 10 mM sodium taurocholate detergent. The mixture was sonicated for 10 to 30 seconds in a Kontes Sonifier to yield a homogeneous dispersion. The \"mixed\" micellar substrate was clear. An aliquot was reserved for a cpm count (total substrate). The total reaction volume was 500 ul; siliconized glassware or plasticware was used throughout. Porcine pancreatic phospholipase A2 enzyme (Sigma, sp. act. […] U/mg protein and preferably 900 U/mg protein) was diluted 1:750 or 1:1000 in 0.1M Tris-HCl buffer, pH 9.0 (without Ca^++ and detergent).\nThe test compound was diluted appropriately in phosphate buffered saline. 10 ul aliquots of the stock solution were either incubated with enzyme in buffer in the absence of Ca^++ detergent or were blown under N2 stream with the substrate prior to the addition of buffer. The substrate and buffer were kept on ice until the reaction was started by the addition of enzyme (preincubated with test compound or diluent, or fresh enzyme) to the substrate dispersion in buffer.\nSamples (600 ul) were extracted with 3 ml of CHC13 /MeOH solution (2:1) for thin layer chromatography. The phases were separated by gentle centrifugation at 700 rpm for 5 minutes. The organic phase was recovered for either thin layer or column chromatography separation.\nFor thin layer chromatography, labeled arachidonate extracted with CHC13 /MeOH solution was separated on Silica Gel G TLC plates (Analtech). Twenty ul of a 2 mg/ml internal standard solution of arachidonic acid (Sigma) was combined with 2 to 3 ml of the organic phase. The entire mixture was dried under nitrogen and redissolved in 50 ul of CHC13 /MeOH solution (2:1). A 20 ul sample was counted in 10 ml of Beckman Redi-solv Scintillation fluid HP and spotted in Silica Gel G plates. The solvent system used to develop the plate was a CHC13 /MeOH/13.5N NH3 /H2 O solution (70:30:4:1). Thin layer chromatography plates were developed in a glass chamber for 1 to 11/2 hours, air dried, and the spots visualized in an iodine vapor chamber. Standards of phosphatidyl/choline, lyso phosphatidyl choline, and arachidonic acid (Sigma) were made up as 2 mg/ml stocks in CHC13 /MeOH solution (2:1) and were spotted on the thin layer chromatography plates. Spots corresponding to arachidonate and phospholipid were scraped and counted in 10 ml Beckman Redi-Solv HP scintillation fluid.\nFor column chromatography, samples were extracted with hexane/diether solution and the upper organic phase recovered. An aliquot was applied to a Silicar CC4 (Maleinckrodt) column. Columns were prepared using 1 ml of 1:1 slurry of Silicar CC4 (Maleinckrodt) in hexane/ether solution in a Pasteur pipet (approximately 2 cm height). Columns were rinsed with 500 ul of hexane/ether solution before adding the sample (300-600 ul) to the columns. Columns were eluted with a total of 6 ml of hexane/ether solution. The 6 ml sample was counted in 10 ml of Beckman Redi-Solv HP scintillation fluid. Thin layer chromatography analysis confirmed that the radioactivity eluted was arachidonate.\n3-((3-(Acetyloxy)-4-(hexadecyloxy)-butyl)-thio)-N,N,N-trimethyl-1-propanaminium, iodide was prepared by the method of Example 65 as a 1 mg/ml solution in methanol. […]"}, "[2]": {"tested_on": "spontaneously hypertensive rats", "test": "Hypotensive activity: mean arterial blood pressure in conscious cannulated spontaneously hypertensive rats, intravenous", "assay_type": "in vivo", "conditions": "for Peak Mean Arterial Blood Pressure: spontaneously hypertensive rats, intravenous", "from_the_text": "Under ether anesthesia, Weeks type cannulas (Peterson Technics) were surgically implanted in the abdominal aorta and vena cave of spontaneously hypertensive rats (Taconic Farms, Germantown, NY) and passed subcutaneously to the back of the neck where they were exteriorized. The cannulas were filled with saline, plugged and the rats returned to single cages where they were allowed food and water ad libitum.\nAt least three days following implantation of the cannulas, the rats were weighed and placed in Broome style restraining cages. The plug was removed from the aortic catheter which was connected to an arterial pressure transducer (Statham P23ID) using PE 100 polyethylene tubing and a stepdown connector fabricated from stainless steel hypodermic tubing. Mean arterial blood pressure was obtained by electrical damping of the pulse pressure channel. Heart rate was obtained from a tachograph triggered by the pulse pressure channel. All parameters were monitored on a Grass physiological recorder (Model 7).\nThe plug was removed from the vena cava catheter and a PE 20 polyethylene tubing extension was added using a piece of stainless steel hypodermic tubing. The other end was terminated with a 27 G needle and one ml syringe.\nAll drugs were dissolved in saline or a mixture of ethanol and saline (25:75V:V) such that the volume injected intravenously was 0.1 ml/100 g body weight. All drugs were flushed in with 0.2 ml saline. Blood pressure was continually monitored both before and after introduction of the test compound."}, "[3]": {"conditions": "1000 uM substrate concentration"}},
  "note": "Structures can show the parent of a compound that is named as a salt. Where two headings read alike, the source gives them in different places.",
  "data": [
    {"compound": "3-((3-(Acetyloxy)-4-(hexadecyloxy)-butyl)-thio)-N,N,N-trimethyl-1-propanaminium, chloride [Example 69]", "values": [
      {"measurement": "Ic50", "setting": "[1]; 2 nM substrate concentration", "value": 2.8, "unit": "µg/mL"},
      {"measurement": "Ic50", "setting": "[1]; 10 uM substrate concentration", "value": "11.52 ± 10.58", "unit": "µg/mL"},
      {"measurement": "Percent Inhibition at 10 ug/ml", "setting": "[1]; 2 nM substrate concentration", "value": 77, "unit": "%"},
      {"measurement": "Percent Inhibition at 10 ug/ml", "setting": "[1]; 10 uM substrate concentration", "value": "55.3 ± 16.5", "unit": "%"},
      {"measurement": "Percent Inhibition at 10 ug/ml", "setting": "[1]; 100 uM substrate concentration", "value": 23, "unit": "%"},
      {"measurement": "Ic50", "setting": "[1]; 100 uM substrate concentration", "value": "45.56 ± 23.60", "unit": "µg/mL"}
    ]},
    {"compound": "CCCCCCCCCCCCCCCCOCC(CCS(=O)(=O)CCC[N+](C)(C)C)OC(C)=O.[Cl-]", "note": "(stereo not shown) [3-((3-(Acetyloxy)-4-(hexadecyloxy)butyl)sulfonyl)-N,N,N-trimethyl-1-propanaminium chloride]", "values": [
      {"measurement": "reduced the blood pressure in the spontaneously hypertensive rat", "setting": "[2]; dose of 10 mg/kg (iv), value is a reduction", "value": 20, "unit": "mm Hg"}
    ]},
    {"compound": "CCCCCCCCCCCCCCCCOCC(COP(=O)([O-])Oc1cccc(C[N+](C)(C)C)c1)OC(C)=O", "note": "(stereo not shown) [3-(((2-(Acetyloxy)-3-(hexadecyloxy)propoxy)hydroxyphosphinyl)oxy)-N,N,N-trimethylbenzenemethanaminium, hydroxide inner salt]", "values": [
      {"measurement": "Peak Mean Arterial Blood Pressure", "setting": "[2]; dose 0.1 ug/kg", "value": "-10.4 mm,Hg"},
      {"measurement": "Peak Mean Arterial Blood Pressure", "setting": "[2]; dose 0.3 ug/kg", "value": "-16.3 mm,Hg"},
      {"measurement": "Peak Mean Arterial Blood Pressure", "setting": "[2]; dose 1.0 ug/kg", "value": "-37.2 mm,Hg"},
      {"measurement": "Peak Mean Arterial Blood Pressure", "setting": "[2]; dose 3.0 ug/kg", "value": "-83.9 mm,Hg"},
      {"measurement": "Peak Mean Arterial Blood Pressure", "setting": "[2]; dose 10.0 ug/kg", "value": "-91.0 mm,Hg"}
    ]},
    {"compound": "CCCCCCCCCCCCCCCCOCC(COP(=O)([O-])OC(C)C[N+](C)(C)C)OC(C)=O", "note": "(stereo not shown) [7-(Acetyloxy)-4-hydroxy-N,N,N,2-tetramethyl-3,5,9-trioxa-4-phosphapentacosan-1-aminium, 4-oxide, hydroxide, inner salt]", "values": [
      {"measurement": "Peak Mean Arterial Blood Pressure", "setting": "[2]; dose 0.3 ug/kg", "value": "-17.4 mm,Hg"},
      {"measurement": "Peak Mean Arterial Blood Pressure", "setting": "[2]; dose 1.0 ug/kg", "value": "-40.2 mm,Hg"},
      {"measurement": "Peak Mean Arterial Blood Pressure", "setting": "[2]; dose 3.0 ug/kg", "value": "-88.8 mm,Hg"},
      {"measurement": "Peak Mean Arterial Blood Pressure", "setting": "[2]; dose 10.0 ug/kg", "value": "-96.5 mm,Hg"},
      {"measurement": "Peak Mean Arterial Blood Pressure", "setting": "[2]; dose 30.0 ug/kg", "value": "-103.4 mm,Hg"}
    ]},
    {"compound": "CCCCCCCCCCCCCCCCOCC(COP(=O)([O-])OCC(c1ccccc1)[N+](C)(C)C)OC(C)=O", "note": "(stereo not shown) [7-(Acetyloxy)-4-hydroxy-N,N,N-trimethyl-1-phenyl-3,5,9-trioxa-4-phosphapentacosan-1-aminium, 4-oxide hydroxide inner salt]", "values": [
      {"measurement": "Peak Mean Arterial Blood Pressure", "setting": "[2]; dose 10.0 ug/kg", "value": "-59.0 mm,Hg"}
    ]},
    {"compound": "CCCCCCCCCCCCCCc1cccc(OCC(COP(=O)([O-])OCC(C)[N+](C)(C)C)OC(C)=O)c1", "note": "(stereo not shown) [7-Hydroxy-N,N,N-trimethyl-2-oxo-4-((3-tetradecylphenoxy)methyl)3,6,8-trioxa-7-phosphaundecan-10-aminium, 7-oxide, hydroxide, inner salt]", "values": [
      {"measurement": "Peak Mean Arterial Blood Pressure", "setting": "[2]; dose 0.03 ug/kg", "value": "-9.8 mm,Hg"},
      {"measurement": "Peak Mean Arterial Blood Pressure", "setting": "[2]; dose 0.1 ug/kg", "value": "-17.6 mm,Hg"},
      {"measurement": "Peak Mean Arterial Blood Pressure", "setting": "[2]; dose 0.3 ug/kg", "value": "-78.7 mm,Hg"},
      {"measurement": "Peak Mean Arterial Blood Pressure", "setting": "[2]; dose 1.0 ug/kg", "value": "-95.9 mm,Hg"}
    ]},
    {"compound": "CCCCCCCCCCCCCCCCOCC(COP(=O)([O-])OCC(C)[N+](C)(C)C)OC(C)=O", "note": "(stereo not shown) [8-(Acetyloxy)-5-hydroxy-N,N-N-trimethyl-4,6,10-trioxa-5-phosphahexacosan-2-aminium, 5-oxide, hydroxide, inner salt]", "values": [
      {"measurement": "Peak Mean Arterial Blood Pressure", "setting": "[2]; dose 0.03 ug/kg", "value": "-16.4 mm,Hg"},
      {"measurement": "Peak Mean Arterial Blood Pressure", "setting": "[2]; dose 0.1 ug/kg", "value": "-36.3 mm,Hg"},
      {"measurement": "Peak Mean Arterial Blood Pressure", "setting": "[2]; dose 0.3 ug/kg", "value": "-58.6 mm,Hg"},
      {"measurement": "Peak Mean Arterial Blood Pressure", "setting": "[2]; dose 1.0 ug/kg", "value": "-103.1 mm,Hg"},
      {"measurement": "Peak Mean Arterial Blood Pressure", "setting": "[2]; dose 3.0 ug/kg", "value": "-118.3 mm,Hg"}
    ]},
    {"compound": "CCCCCCCCCCCCCCCCOCC(CCSCCCN(C)C)OC(C)=O", "note": "(stereo not shown) [Example 67, 4-((3-(Dimethylamino)propyl)thio)-1-(hexadecyloxy)-2-butanol, acetate]", "values": [
      {"measurement": "IC50", "setting": "[1]; 2 nM substrate concentration", "value": 18.6, "unit": "µM"},
      {"measurement": "IC50", "setting": "[1]; 10 uM substrate concentration", "value": 45.7, "unit": "µM"},
      {"measurement": "inhibition at 10 µg/mL", "setting": "[1]; 2 nM substrate concentration", "value": 54, "unit": "%"},
      {"measurement": "inhibition at 10 µg/mL", "setting": "[1]; 10 uM substrate concentration", "value": "33 ± 12.7", "unit": "%"},
      {"measurement": "IC50", "setting": "[1]; 100 uM substrate concentration", "value": 96.7, "unit": "µM"},
      {"measurement": "IC50", "setting": "[1]; 500 uM substrate concentration", "value": 226, "unit": "µM"}
    ]},
    {"compound": "CCCCCCCCCCCCCCCCOCC(CCSCCC[N+](C)(C)C)OC(C)=O", "note": "(stereo not shown) [Example 68, 3-((3-(Acetyloxy)-4-(hexadecyloxy)-butyl)-thio)-N,N,N-trimethyl-1-propanaminium, iodide]", "values": [
      {"measurement": "IC50", "setting": "[1]; 2 nM substrate concentration", "value": 2.52, "unit": "µM"},
      {"measurement": "IC50", "setting": "[1]; 10 uM substrate concentration", "value": 10.1, "unit": "µM"},
      {"measurement": "inhibition at 10 µg/mL", "setting": "[1]; 2 nM substrate concentration", "value": "96.6 ± 4.6", "unit": "%"},
      {"measurement": "inhibition at 10 µg/mL", "setting": "[1]; 10 uM substrate concentration", "value": "63.2 ± 13.5", "unit": "%"},
      {"measurement": "inhibition at 10 µg/mL", "setting": "[1]; 100 uM substrate concentration", "value": "45 ± 13.6", "unit": "%"},
      {"measurement": "inhibition at 10 µg/mL", "setting": "[1]; 500 uM substrate concentration", "value": "15.4 ± 5.7", "unit": "%"},
      {"measurement": "inhibition at 10 µg/mL", "setting": "[1]; [3]", "value": "8.2 ± 4.6", "unit": "%"},
      {"measurement": "IC50", "setting": "[1]; 100 uM substrate concentration", "value": 20, "unit": "µM"},
      {"measurement": "IC50", "setting": "[1]; 500 uM substrate concentration", "value": 96.8, "unit": "µM"},
      {"measurement": "IC50", "setting": "[1]; [3]", "value": 137, "unit": "µM"}
    ]}
  ]
}
